According to patent US11931380B2, “Inhibition of diacylglycerol kinase to augment adoptive T cell transfer” (THE TRUSTEES OF THE UNIVERSITY OF PENNSYLVANIA, priority 2012, dated 2024):

How the values were obtained:
DGK [1] = assay: DGK inhibitor effect on killing activity of human CAR-TIL; type: cell-based; details: preliminary observations
Experimental: In addition, experiments were conducted to mimic potential human trials in which mice with established tumors were injected intravenously with 10^7 wild type T cells or the three types of DGK knockout T cells. […] Preliminary relevant observations in human CAR T cells have been recorded using a commercially available DGK inhibitor (R59022). Human mesothelin-CAR T cells mixed with human mesothelin tumor cells (at a 1:1 ratio) were injected into immunodeficient mice. The tumor growth was slowed, but not prevented by the CAR-T cells. After 2-3 weeks, tumors were harvested and the human CAR-T cells were purified. When these T cells (Tumor infiltrating lymphocytes, or TILs) are allowed to react with fresh tumors, they can kill only 5-10% of the tumor cells showing they are hypofunctional compared to freshly made CAR-T cells which kill 70% of tumor cells (FIG. 15).

DGK [2] = assay: Lysis of EM-meso-luc cells by antigen-exposed human mesoCAR T cells with or without DGK inhibitors; type: cell-based; details: 5 μg/mL inhibitor, 18 hours, after 96 hours exposure to EM-meso
Experimental: Primary human T cells were obtained and mock infected or transduced with lentivirus expressing mesoCAR as previously described (Moon et al., 2011, Clin Cancer Res 17:4719-30). A total of 5×10^6 T cells were subsequently added to 24-well plates that had been seeded with 5×10^5 cells either from the epithelial mesothelioma (EM) human mesothelioma line or a stable derivative cell line, EM-meso, engineered to express high levels of mesothelin, in a 24-well dish. […] Cells were assessed for viability using Trypan blue, and 1×10^5 live T cells were cocultured with 5×10^3 EM-meso-luc cells expressing luciferase in 96-well plates in the presence or absence of the DGK inhibitors DGK1 (R59022) or DGK2 (R59949; Sigma) at 5 μg/mL. After 18 hours, remaining tumor cells were washed and lysed, and luminescence was evaluated. Cell lysate determinations were corroborated with visual estimate of remaining numbers of tumor cells.

DGK [3] = details: freshly isolated human TIL, renal cell cancers; cited from earlier work

| SMILES | function (killing activity) of human CAR-TIL (DGK [1]) | cytotoxicity of mesothelin-exposed mesoCAR T cells (DGK [2]) | TIL function (DGK [3]) |
| --- | --- | --- | --- |
| Cc1nc2sccn2c(=O)c1CCN1CCC(=C(c2ccccc2)c2ccc(F)cc2)CC1 [R59022] | augments function | reverse the impaired cytotoxicity | improve TIL function |
| O=c1c2ccccc2[nH]c(=S)n1CCN1CCC(=C(c2ccc(F)cc2)c2ccc(F)cc2)CC1 [R59949] | – | reverse the impaired cytotoxicity | – |
